Series [1] in a line: Comparison of exposure of released alvocidib to parent prodrug exposure. It is filed as in vivo. Particulars: expressed as a percentage of the released alvocidib exposure. The method, then:
Representative prodrug compounds (i.e., Compounds 10, 21-28 and 29-31) were tested to determine the resultant exposure of released alvocidib as well exposure of the parent compound. The exposure of the parent prodrug is expressed as a percentage of the released alvocidib exposure (% F). The released alvocidib exposure (% F) for each prodrug was calculated as a percentage of the exposure of alvocidib, dosed orally at an equivalent dose.

Series [2] can be described thus: Pharmacokinetic testing of representative compounds in CD-1 mice, oral dosing. In kind it is in vivo. The following applies: mean ± SD; for AUC0→∞, analyte: prodrug compound / AUCLast, analyte: prodrug compound / half-life / Tmax: dosed orally 10 mg/kg, analyte = dosed prodrug, nd = none detected; for half-life / Tmax: mouse, in vivo, po; for half-life: read-out: Half Life, analyte: prodrug compound (converted); for Tmax: read-out: Tmax, analyte: prodrug compound. How it is done: Representative compounds were tested for pharmacokinetic activity in CD-1 mice. Mice were dosed orally with 10 mg/kg of each representative compound as well as alvocidib.
The results in Table 3 show the tested compounds afforded high exposure of released alvocidib and no apparent exposure of the prodrug compounds. Additional results are shown in Tables 4 and 5, including use of alvocidib.HCl as a control: […]

Setting [3] is: labelled compound dosed orally 10 mg/kg, analyte = alvocidib (released from prodrug, or alvocidib.HCl control), hydrochloride, 10 mg/kg.

Data on ten molecules can be found in patent US11279694B2, “Alvocidib prodrugs and their use as protein kinase inhibitors” (Sumitomo Dainippon Pharma Oncology, Inc., priority 2016, dated 2022).

Several values for one entry are separate records, joined by “and”; a condition that tells them apart may be missing. Identical values can stand only once.

For `CC(C)C(=O)O[C@@H]1CN(C)CC[C@@H]1c1c(O)cc(O)c2c(=O)cc(-c3ccccc3Cl)oc12` [Compound 22, (3S, 4R)-4-(2-(2-chlorophenyl)-5,7-dihydroxy-4-oxo-4H-chromen-8-yl)-1-methylpiperidin-3-yl isobutyrate], in series [1], the “exposure of the parent prodrug” value stood at 3%.

In general, half-life refers to the time in which the quantity being followed falls by half. As a reminder, the Tmax is the time at which the peak concentration occurs. For `COC(=O)O[C@@H]1CN(C)CC[C@@H]1c1c(O)cc(O)c2c(=O)cc(-c3ccccc3Cl)oc12` [Compound 11, (3S, 4R)-4-(2-(2-chlorophenyl)-5,7-dihydroxy-4-oxo-4H-chromen-8-yl)-1-methylpiperidin-3-yl methyl carbonate], in series [2], the “AUC0→∞, analyte: prodrug compound” value was 275.1 ± 24.1 ng · h/mL or ng · h/G; the “AUCLast, analyte: prodrug compound” value is on record as 238.3 ± 43.9 ng · h/mL or ng · h/G; the half-life is 252 ± 6 min; the Tmax was 15 min.

As for `CCOC(=O)O[C@@H]1CN(C)CC[C@@H]1c1c(O)cc(O)c2c(=O)cc(-c3ccccc3Cl)oc12` [Compound 10, (3S, 4R)-4-(2-(2-chlorophenyl)-5,7-dihydroxy-4-oxo-4H-chromen-8-yl)-1-methylpiperidin-3-yl ethyl carbonate], the “exposure of the parent prodrug” value in series [1] is reported as 2%. Also, in series [2], the “AUC0→∞, analyte: prodrug compound” value is recorded as 646.8 ± 219.4 ng · h/mL or ng · h/G; the “AUCLast, analyte: prodrug compound” value is 405.4 ± 215.6 ng · h/mL or ng · h/G; the half-life is 228 ± 36 min; the Tmax stood at 15 min.

In the case of `CN1CC[C@H](c2c(O)cc(O)c3c(=O)cc(-c4ccccc4Cl)oc23)[C@H](OC(=O)CN)C1` [Compound 28, (3S, 4R)-4-(2-(2-chlorophenyl)-5,7-dihydroxy-4-oxo-4H-chromen-8-yl)-1-methylpiperidin-3-yl glycinate], the “exposure of the parent prodrug” value in series [1] was “not detected”.

Regarding `CCCCCCC(=O)O[C@@H]1CN(C)CC[C@@H]1c1c(O)cc(O)c2c(=O)cc(-c3ccccc3Cl)oc12` [Compound 31, (3S, 4R)-4-(2-(2-chlorophenyl)-5,7-dihydroxy-4-oxo-4H-chromen-8-yl)-1-methylpiperidin-3-yl heptanoate], the “exposure of the parent prodrug” value in series [1] is on record as “not detected”.

For `CCCCC(=O)O[C@@H]1CN(C)CC[C@@H]1c1c(O)cc(O)c2c(=O)cc(-c3ccccc3Cl)oc12` [Compound 32, (3S, 4R)-4-(2-(2-chlorophenyl)-5,7-dihydroxy-4-oxo-4H-chromen-8-yl)-1-methylpiperidin-3-yl pentanoate], in series [1], the “exposure of the parent prodrug” value is recorded as “not detected”.

As for `CCNC(=O)O[C@@H]1CN(C)CC[C@@H]1c1c(O)cc(O)c2c(=O)cc(-c3ccccc3Cl)oc12` [Compound 12, (3S, 4R)-4-(2-(2-chlorophenyl)-5,7-dihydroxy-4-oxo-4H-chromen-8-yl)-1-methylpiperidin-3-yl ethylcarbamate], in series [2], the “AUC0→∞, analyte: prodrug compound” value is reported as 281.4 ± 28.3 ng · h/mL or ng · h/G; the “AUCLast, analyte: prodrug compound” value was 262.2 ± 27.8 ng · h/mL or ng · h/G; the half-life was 126 ± 6 min; the Tmax was found to be 25.2 ± 6 min.

With `CN1CC[C@H](c2c(O)cc(O)c3c(=O)cc(-c4ccccc4Cl)oc23)[C@H](O)C1.Cl` [Alvocidib•HCl, 2-(2-chlorophenyl)-5,7-dihydroxy-8-[(3S,4R)-3-hydroxy-1-methylpiperidin-4-yl]-4H-chromen-4-one hydrochloride, reference compound], in series [2] (setting [3]), the “AUC0→∞, analyte: Alvocidib” value is 10,933.3 ± 4498.0 ng · h/mL or ng · h/G and 10,603.8 ± 1968.4 ng · h/mL or ng · h/G; the “AUCLast, analyte: Alvocidib” value was 7275.2 ± 2572.2 ng · h/mL or ng · h/G and 9952.7 ± 1769.5 ng · h/mL or ng · h/G.

As to `CNC(=O)O[C@@H]1CN(C)CC[C@@H]1c1c(O)cc(O)c2c(=O)cc(-c3ccccc3Cl)oc12` [Compound 13, (3S, 4R)-4-(2-(2-chlorophenyl)-5,7-dihydroxy-4-oxo-4H-chromen-8-yl)-1-methylpiperidin-3-yl methylcarbamate], in series [2], the “AUC0→∞, analyte: prodrug compound” value is 620.2 ± 147.7 ng · h/mL or ng · h/G; the “AUCLast, analyte: prodrug compound” value is reported as 594.7 ± 143.7 ng · h/mL or ng · h/G; the half-life was 120 ± 48 min; the Tmax turned out to be 24 ± 6 min.

As for `C[C@H](N)C(=O)O[C@@H]1CN(C)CC[C@@H]1c1c(O)cc(O)c2c(=O)cc(-c3ccccc3Cl)oc12` [Compound 27, (3S, 4R)-4-(2-(2-chlorophenyl)-5,7-dihydroxy-4-oxo-4H-chromen-8-yl)-1-methylpiperidin-3-yl L-alaninate], the “exposure of the parent prodrug” value in series [1] was “low exposure”.
